Data from patent publication US8188078B2 (Sanofi-Aventis, priority 2007, dated 2012).
Structures can show the parent of a compound that is named as a salt.

Columns and labels:
[1] = target: RON (Homo sapiens, UniProt Q04912); assay: Test B: HTRF RON test in 96-well format; type: biochemical
Summary of the method: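 RON 5 nM pre-incubated 30 min at RT with compound (0.17 nM–10 μM final, 3% DMSO) in MOPS 10 mM pH 7, DTT, Tween 20. Reaction with biotinylated poly-(GAT) 1 μg/ml, ATP 10 μM, MgCl2 5 mM, 30 min RT. Eu-anti-pTyr/streptavidin-XL665 HTRF, 665/620 ratio gives % inhibition, IC50.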

[2] = target: T1, MET (Homo sapiens, UniProt P08581); assay: Test C: inhibition of the autophosphorylation of MET, ELISA technique (pppY1230, 1234, 1235), MKN45 cells; type: cell-based
T1 construct: endogenous in cells; host or cells: MKN45 cells
Summary of the method: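 MKN45 cells adhered 24 h, then treated 1 h with compound at 6 concentrations in duplicate, final range 10000 to 30 nM. Lysates assayed by phospho-MET (pY1230/1234/1235) sandwich ELISA with HRP chromogen read at 450 nm.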

T1 sequence (P08581 25-1390): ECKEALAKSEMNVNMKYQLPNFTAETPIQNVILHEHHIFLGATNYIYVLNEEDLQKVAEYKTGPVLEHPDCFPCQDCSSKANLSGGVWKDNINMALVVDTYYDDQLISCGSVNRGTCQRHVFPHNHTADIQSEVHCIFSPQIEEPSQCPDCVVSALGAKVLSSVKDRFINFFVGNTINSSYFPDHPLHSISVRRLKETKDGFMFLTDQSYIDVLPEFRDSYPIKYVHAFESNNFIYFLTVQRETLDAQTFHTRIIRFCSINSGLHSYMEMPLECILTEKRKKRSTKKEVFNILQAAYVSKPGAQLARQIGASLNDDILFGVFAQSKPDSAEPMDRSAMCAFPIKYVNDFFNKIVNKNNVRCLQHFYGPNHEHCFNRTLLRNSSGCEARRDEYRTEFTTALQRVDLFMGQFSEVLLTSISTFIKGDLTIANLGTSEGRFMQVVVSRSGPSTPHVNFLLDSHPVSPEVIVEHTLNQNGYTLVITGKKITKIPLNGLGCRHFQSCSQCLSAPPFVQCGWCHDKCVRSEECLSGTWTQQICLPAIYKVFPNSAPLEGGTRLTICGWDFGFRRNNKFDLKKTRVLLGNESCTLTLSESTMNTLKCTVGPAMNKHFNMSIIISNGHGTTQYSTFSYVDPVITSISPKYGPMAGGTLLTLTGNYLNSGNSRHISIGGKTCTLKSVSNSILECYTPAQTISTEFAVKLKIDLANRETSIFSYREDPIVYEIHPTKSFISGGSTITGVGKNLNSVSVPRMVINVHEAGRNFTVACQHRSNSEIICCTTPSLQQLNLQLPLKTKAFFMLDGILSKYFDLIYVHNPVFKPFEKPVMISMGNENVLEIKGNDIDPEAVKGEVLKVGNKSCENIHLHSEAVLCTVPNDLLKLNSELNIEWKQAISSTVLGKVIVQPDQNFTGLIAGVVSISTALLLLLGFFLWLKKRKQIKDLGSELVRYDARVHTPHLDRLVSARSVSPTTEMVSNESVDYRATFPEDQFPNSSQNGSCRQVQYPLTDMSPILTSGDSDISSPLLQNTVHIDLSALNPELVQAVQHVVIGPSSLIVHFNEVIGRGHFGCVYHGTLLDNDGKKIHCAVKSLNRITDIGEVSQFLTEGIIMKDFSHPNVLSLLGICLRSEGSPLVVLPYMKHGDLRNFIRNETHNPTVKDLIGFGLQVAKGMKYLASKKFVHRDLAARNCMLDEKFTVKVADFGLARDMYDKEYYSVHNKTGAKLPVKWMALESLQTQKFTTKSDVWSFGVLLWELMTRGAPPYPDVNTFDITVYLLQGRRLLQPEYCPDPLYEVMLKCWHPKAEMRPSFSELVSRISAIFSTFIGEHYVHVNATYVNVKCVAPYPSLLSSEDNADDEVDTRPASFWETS
Sequence of RON (Q04912 25-1400): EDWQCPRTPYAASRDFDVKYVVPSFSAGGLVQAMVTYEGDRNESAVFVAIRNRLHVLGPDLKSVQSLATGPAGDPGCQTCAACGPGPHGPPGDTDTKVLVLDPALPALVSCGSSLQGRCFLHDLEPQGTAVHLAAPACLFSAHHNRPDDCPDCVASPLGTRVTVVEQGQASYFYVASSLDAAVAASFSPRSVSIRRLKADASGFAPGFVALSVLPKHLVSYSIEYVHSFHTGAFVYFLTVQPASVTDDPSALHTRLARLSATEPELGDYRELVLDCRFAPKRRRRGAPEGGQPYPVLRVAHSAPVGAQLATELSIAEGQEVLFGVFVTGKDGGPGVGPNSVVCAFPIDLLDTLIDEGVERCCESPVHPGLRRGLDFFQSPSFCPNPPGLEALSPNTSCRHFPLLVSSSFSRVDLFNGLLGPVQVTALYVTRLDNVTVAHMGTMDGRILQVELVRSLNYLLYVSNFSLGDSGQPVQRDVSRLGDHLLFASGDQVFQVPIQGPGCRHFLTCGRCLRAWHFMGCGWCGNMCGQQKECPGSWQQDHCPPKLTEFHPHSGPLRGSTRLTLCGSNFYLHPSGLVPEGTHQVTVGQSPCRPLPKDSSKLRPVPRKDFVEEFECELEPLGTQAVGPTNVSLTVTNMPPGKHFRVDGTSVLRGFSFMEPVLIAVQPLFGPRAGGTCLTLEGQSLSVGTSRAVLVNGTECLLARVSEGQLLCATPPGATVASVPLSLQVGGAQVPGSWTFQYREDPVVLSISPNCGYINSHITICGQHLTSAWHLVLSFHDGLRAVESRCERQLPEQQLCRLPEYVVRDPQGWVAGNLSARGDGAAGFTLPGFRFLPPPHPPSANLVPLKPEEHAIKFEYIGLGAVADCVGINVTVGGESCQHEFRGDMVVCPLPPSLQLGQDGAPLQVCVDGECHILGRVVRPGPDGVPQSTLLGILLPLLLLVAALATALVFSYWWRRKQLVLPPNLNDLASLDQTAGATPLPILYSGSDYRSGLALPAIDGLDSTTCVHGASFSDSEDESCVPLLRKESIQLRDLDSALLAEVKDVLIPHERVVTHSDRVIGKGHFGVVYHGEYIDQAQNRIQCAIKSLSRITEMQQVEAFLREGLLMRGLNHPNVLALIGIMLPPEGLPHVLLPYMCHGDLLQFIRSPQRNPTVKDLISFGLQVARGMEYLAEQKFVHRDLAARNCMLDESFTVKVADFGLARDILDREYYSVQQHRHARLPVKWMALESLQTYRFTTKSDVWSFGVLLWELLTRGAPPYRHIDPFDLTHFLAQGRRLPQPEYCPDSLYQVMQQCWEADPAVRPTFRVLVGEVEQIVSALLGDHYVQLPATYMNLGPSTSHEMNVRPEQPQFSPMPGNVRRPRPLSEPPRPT

SMILES	IC50 [1] [nM]	IC50 [2] [nM]
CC(Oc1cc2sc(NC(=O)NCCN3CCOCC3)nc2cc1F)c1c(Cl)cccc1Cl (centres unmarked) [Example 29, 1-{6-[1-(2,6-dichlorophenyl)ethoxy]-5-fluoro-1,3-benzothiazol-2-yl}-3-(2-morpholin-4-ylethyl)urea]	< 500	< 500
O=C(NCCN1CCOCC1)Nc1nc2cc(F)c(OCc3c(Cl)cccc3Cl)cc2s1 [Example 21, 1-{6-[(2,6-dichlorobenzyl)oxy]-5-fluoro-1,3-benzothiazol-2-yl}-3-(2-morpholin-4-ylethyl)urea]	500 to 10000	500 to 10000
CC(Oc1ccc2nc(NC(=O)NCCCN3CCCC3=O)sc2c1)c1c(Cl)ccc(F)c1Cl (centres unmarked) [Example 45, 1-{6-[1-(2,6-dichloro-3-fluorophenyl)ethoxy]-1,3-benzothiazol-2-yl}-3-[3-(2-oxopyrrolidin-1-yl)propyl]urea]	500 to 10000	< 500
CC(Oc1ccc2nc(NC(=O)NCCN3CCOCC3)sc2c1)c1c(F)cccc1F (centres unmarked) [Example 18, 1-{6-[1-(2,6-difluorophenyl)ethoxy]-1,3-benzothiazol-2-yl}-3-(2-morpholin-4-ylethyl)urea]	500 to 10000	500 to 10000
CC(Oc1ccc2nc(NC(=O)NCCN3CCOCC3)[nH]c2c1)c1c(Cl)ccc(F)c1Cl (centres unmarked) [Example 4, 4-{2-[({6-[1-(2,6-Dichloro-3-fluorophenyl)ethoxy]-1H-benzimidazol-2-yl}carbamoyl)amino]ethyl}morpholin-4-ium trifluoroacetate]	< 500	500 to 10000
CC(Oc1ccc2nc(NC(=O)NCCCN(C)C)sc2c1)c1c(Cl)ccc(F)c1Cl (centres unmarked) [Example 43, 1-{6-[1-(2,6-dichloro-3-fluorophenyl)ethoxy]-1,3-benzothiazol-2-yl}-3-[3-(dimethylamino)propyl]urea]	< 500	< 500
CC(Oc1ccc2nc(NC(=O)NCCN3CCOCC3)sc2c1)c1ccccc1C(F)(F)F (centres unmarked) [Example 19, 1-(2-morpholin-4-ylethyl)-3-(6-{1-[2-(trifluoromethyl)phenyl]ethoxy}-1,3-benzothiazol-2-yl)urea]	500 to 10000	500 to 10000
C[C@@H](Oc1cc2sc(NC(=O)NCCN3CCOCC3)nc2cc1F)c1c(Cl)ccc(F)c1Cl (single isomer, unassigned) [Example 32, 1-{6-[(1R)-(2,6-dichloro-3-fluorophenyl)ethoxy]-5-fluoro-1,3-benzothiazol-2-yl}-3-(2-morpholin-4-ylethyl)urea or 1-{6-[(1S)-(2,6-dichloro-3-fluorophenyl)ethoxy]-5-fluoro-1,3-benzothiazol-2-yl}-3-(2-morpholin-4-ylethyl)urea]	< 500	< 500
CC(Oc1ccc2nc(NC(=O)NCCN3CCOCC3)sc2c1)c1c(Cl)cccc1Cl (centres unmarked) [Example 17, 1-{6-[1-(2,6-dichlorophenyl)ethoxy]-1,3-benzothiazol-2-yl}-3-(2-morpholin-4-ylethyl)urea]	< 500	500 to 10000
C[C@@H](Oc1cc2sc(NC(=O)NCCN3CCOCC3)nc2cc1F)c1c(Cl)ccc(F)c1Cl (single isomer, unassigned) [Example 33, 1-{6-[(1R)-(2,6-dichloro-3-fluorophenyl)ethoxy]-5-fluoro-1,3-benzothiazol-2-yl}-3-(2-morpholin-4-ylethyl)urea or 1-{6-[(1S)-(2,6-dichloro-3-fluorophenyl)ethoxy]-5-fluoro-1,3-benzothiazol-2-yl}-3-(2-morpholin-4-ylethyl)urea]	< 500	500 to 10000
CC(Oc1cc2[nH]c(NC(=O)NCCN3CCOCC3)nc2cc1F)c1c(Cl)cccc1Cl (centres unmarked) [Example 5, 1-{6-[1-(2,6-dichlorophenyl)ethoxy]-5-fluoro-1H-benzimidazol-2-yl}-3-(2-morpholin-4-ylethyl)urea]	< 500	500 to 10000
CC(Oc1ccc2nc(NC(=O)NCCC3CCNCC3)sc2c1)c1c(Cl)ccc(F)c1Cl (centres unmarked) [Example 39, 1-{6-[1-(2,6-Dichloro-3-fluorophenyl)ethoxy]-1,3-benzothiazol-2-yl}-3-(2-piperidin-4-ylethyl)urea trifluoroacetate]	< 500	< 500

Second part, the molecule after the results:

IC50 [1] [nM]	IC50 [2] [nM]	SMILES
500 to 10000	< 500	CC(Oc1ccc2nc(NC(=O)NCCCN3CCN(Cc4ccccc4)CC3)sc2c1)c1c(Cl)ccc(F)c1Cl (centres unmarked) [Example 49, 1-[3-(4-benzylpiperazin-1-yl)propyl]-3-{6-[1-(2,6-dichloro-3-fluorophenyl)ethoxy]-1,3-benzothiazol-2-yl}urea]
< 500	< 500	CC(Oc1ccc2nc(NC(=O)NCCC3CCCN3C)sc2c1)c1c(F)ccc(Cl)c1Cl (centres unmarked) [Example 110, 1-{6-[1-(2,3-dichloro-6-fluorophenyl)ethoxy]-1,3-benzothiazol-2-yl}-3-[2-(1-methylpyrrolidin-2-yl)ethyl]urea]
500 to 10000	500 to 10000	CC(Oc1ccc2nc(NC(=O)NCCCN3CCN(Cc4c(F)cccc4Cl)CC3)sc2c1)c1c(Cl)ccc(F)c1Cl (centres unmarked) [Example 46, 1-{3-[4-(2-chloro-6-fluorobenzyl)piperazin-1-yl]propyl}-3-{6-[1-(2,6-dichloro-3-fluorophenyl)ethoxy]-1,3-benzothiazol-2-yl}urea]
500 to 10000	< 500	CC(Oc1cc2sc(NC(=O)NCC(=O)N3CCN(C)CC3)nc2cc1F)c1c(Cl)ccc(F)c1Cl (centres unmarked) [Example 129, 1-{6-[1-(2,6-dichloro-3-fluorophenyl)ethoxy]-5-fluoro-1,3-benzothiazol-2-yl}-3-[2-(4-methylpiperazin-1-yl)-2-oxoethyl]urea]
500 to 10000	< 500	CC(Oc1ccc2nc(NC(=O)NCCN3CCCC3)sc2c1)c1c(Cl)ccc(F)c1Cl (centres unmarked) [Example 51, 1-{6-[1-(2,6-dichloro-3-fluorophenyl)ethoxy]-1,3-benzothiazol-2-yl}-3-(2-pyrrolidin-1-ylethyl)urea]
< 500	< 500	CC(Oc1cc2sc(NC(=O)NCCN3CCOCC3)nc2cc1F)c1c(F)ccc(Cl)c1Cl (single isomer, unassigned) [Example 112, 1-{6-[(1R*)-1-(2,3-dichloro-6-fluorophenyl)ethoxy]-5-fluoro-1,3-benzothiazol-2-yl}-3-[2-(morpholin-4-yl)ethyl]urea]
500 to 10000	500 to 10000	CC(Oc1cc2sc(NC(=O)NCCOCC3CC3)nc2cc1F)c1c(Cl)ccc(F)c1Cl (centres unmarked) [Example 103, 1-[2-(cyclopropylmethoxy)ethyl]-3-{6-[1-(2,6-dichloro-3-fluorophenyl)ethoxy]-5-fluoro-1,3-benzothiazol-2-yl}urea]
< 500	< 500	CC(Oc1cc2sc(NC(=O)NCCO)nc2cc1F)c1c(Cl)ccc(F)c1Cl (single isomer, unassigned) [Example 99, 1-{6-[(1R*)-1-(2,6-dichloro-3-fluorophenyl)ethoxy]-5-fluoro-1,3-benzothiazol-2-yl}-3-(2-hydroxyethyl)urea]
500 to 10000	500 to 10000	CC(Oc1cc2sc(NC(=O)NCCN3CCN(C)CC3)nc2cc1F)c1c(F)ccc(Cl)c1Cl (single isomer, unassigned) [Example 117, 1-{6-[(1S*)-1-(2,3-dichloro-6-fluorophenyl)ethoxy]-5-fluoro-1,3-benzothiazol-2-yl}-3-[2-(4-methylpiperazin-1-yl)ethyl]urea]
< 500	< 500	CC(Oc1ccc2nc(NC(=O)NCCN3CCN(C)CC3)sc2c1)c1c(F)ccc(Cl)c1Cl (centres unmarked) [Example 108, 1-{6-[1-(2,3-dichloro-6-fluorophenyl)ethoxy]-1,3-benzothiazol-2-yl}-3-[2-(4-methylpiperazin-1-yl)ethyl]urea]
500 to 10000	500 to 10000	CC(Oc1ccc2nc(NC(=O)NCCN3CCCC3)sc2c1)c1c(Cl)ccc(Cl)c1Cl (centres unmarked) [Example 125, 1-[2-(pyrrolidin-1-yl)ethyl]-3-{6-[1-(2,3,6-trichlorophenyl)ethoxy]-1,3-benzothiazol-2-yl}urea]
500 to 10000	500 to 10000	Cc1ccc(F)c(C(C)Oc2ccc3nc(NC(=O)NCCN4CCOCC4)sc3c2)c1F (centres unmarked) [Example 123, 1-{6-[1-(2,6-difluoro-3-methylphenyl)ethoxy]-1,3-benzothiazol-2-yl}-3-[2-(morpholin-4-yl)ethyl]urea]
500 to 10000	500 to 10000	CC(Oc1ccc2nc(NC(=O)NCc3ccncc3)sc2c1)c1c(Cl)ccc(F)c1Cl (centres unmarked) [Example 57, 1-{6-[1-(2,6-dichloro-3-fluorophenyl)ethoxy]-1,3-benzothiazol-2-yl}-3-(pyridin-4-ylmethyl)urea]
< 500	< 500	CC(Oc1cc2sc(NC(=O)NCCCN3CCCC3=O)nc2cc1F)c1c(F)ccc(Cl)c1Cl (centres unmarked) [Example 114, 1-{6-[1-(2,3-dichloro-6-fluorophenyl)ethoxy]-5-fluoro-1,3-benzothiazol-2-yl}-3-[3-(2-oxopyrrolidin-1-yl)propyl]urea]
< 500	< 500	CC(Oc1cc2sc(NC(=O)NCCN3CCCC3)nc2cc1F)c1c(F)ccc(Cl)c1Cl (centres unmarked) [Example 118, 1-{6-[1-(2,3-dichloro-6-fluorophenyl)ethoxy]-5-fluoro-1,3-benzothiazol-2-yl}-3-[2-(pyrrolidin-1-yl)ethyl]urea]
< 500	< 500	CC(Oc1ccc2nc(NC(=O)NCCN3CCCC3)sc2c1)c1c(F)ccc(Cl)c1Cl (single isomer, unassigned) [Example 121, 1-{6-[(1R*)-(2,3-dichloro-6-fluorophenyl)ethoxy]-1,3-benzothiazol-2-yl}-3-[2-(pyrrolidin-1-yl)ethyl]urea]
